In patent US20230265068A1, “TRANSIENT RECEPTOR POTENTIAL CANONICAL 3 INHIBITORS AND METHODS OF USE THEREOF” (University of Tennessee Research Foundation, priority 2020, published 2023):

Columns and labels:
[1] = brain permeability and half-life after systemic administration in C57BL/6 mice; assay type: in vivo
Experimental: The brain permeability of compound 22 was evaluated with systemic administration (20 mg/kg, i.v.) in C57BL/6 mice. Blood samples were collected at nine time points after compound administration: 5 min, 15 min, 30 min, 1 hr, 2 hr, 4 hr, 8 hr, 16 hr, and 24 hr. Brain homogenates were then extracted and analyzed for concentrations of compound 22 by liquid chromatography-mass spectrometry (LC-MS). The half-life (T½) in the brain was calculated by GraphPad Prism software.

[2] = test system: pilocarpine-induced seizures; assay: mouse pilocarpine model of SE; assay type: in vivo, mice
Experimental: (FIG. 7A) Mice were treated by pilocarpine (220 mg/kg, i.p.) for seizure induction, and behavioral seizures were scored every 5 min based a modified Racine scale. After stage-2 behavioral seizures were established (usually about 15-20 min after pilocarpine injection), mice were treated by either vehicle or compound 22 (100 mg/kg, i.p.). […] (FIG. 7B) Maximal seizure scores in mice after pilocarpine injection (p<0.0001, t-test). (FIG. 7C) Latency to partial (stage-3) seizures (p=0.0002, t-test). (FIG. 7D) Latency to generalized (stage-4) seizures (p=0.0001, t-test). (FIG. 7E) Percentage of animals that experienced stage-5 seizures or SE (p<0.0001, Fisher's exact test). (FIG. 7F) Percentage of animals survived pilocarpine-induced seizures (p=0.1649, Fisher's exact test). Data are presented as mean+/±SEM.
Mouse Pilocarpine Model of SE. Mice were first injected with methylscopolamine and terbutaline (2 mg/kg each in saline, i.p.) to minimize the unwanted effects of pilocarpine in the periphery. Thirty minutes later, pilocarpine (250 mg/kg in saline, freshly prepared, i.p.) was injected to induce seizures in mice. To determine the anti-seizure effects of compound 22, compound 22 was administered either before pilocarpine injection or after the behavioral seizures were well established. Control mice received methylscopolamine and terbutaline, followed by saline injection instead of pilocarpine. Behavioral seizures were classified using a modified Racine scale as we previously described (Table 5).^22-25 SE was defined by non-intermittent seizure activity (stage 5), which was indicated by continuous generalized clonic seizures without returning to lower-stage seizures (Table 5).

TRPC3 = biological target: T1, TRPC3 (Homo sapiens, UniProt Q13507); assay: LC-MS detection of compound bound to affinity-purified TRPC3 protein after size-exclusion chromatography; assay type: binding; parameters: made in house; conditions: 1 h incubation, free compound removed
T1 sequence (Q13507 1-921): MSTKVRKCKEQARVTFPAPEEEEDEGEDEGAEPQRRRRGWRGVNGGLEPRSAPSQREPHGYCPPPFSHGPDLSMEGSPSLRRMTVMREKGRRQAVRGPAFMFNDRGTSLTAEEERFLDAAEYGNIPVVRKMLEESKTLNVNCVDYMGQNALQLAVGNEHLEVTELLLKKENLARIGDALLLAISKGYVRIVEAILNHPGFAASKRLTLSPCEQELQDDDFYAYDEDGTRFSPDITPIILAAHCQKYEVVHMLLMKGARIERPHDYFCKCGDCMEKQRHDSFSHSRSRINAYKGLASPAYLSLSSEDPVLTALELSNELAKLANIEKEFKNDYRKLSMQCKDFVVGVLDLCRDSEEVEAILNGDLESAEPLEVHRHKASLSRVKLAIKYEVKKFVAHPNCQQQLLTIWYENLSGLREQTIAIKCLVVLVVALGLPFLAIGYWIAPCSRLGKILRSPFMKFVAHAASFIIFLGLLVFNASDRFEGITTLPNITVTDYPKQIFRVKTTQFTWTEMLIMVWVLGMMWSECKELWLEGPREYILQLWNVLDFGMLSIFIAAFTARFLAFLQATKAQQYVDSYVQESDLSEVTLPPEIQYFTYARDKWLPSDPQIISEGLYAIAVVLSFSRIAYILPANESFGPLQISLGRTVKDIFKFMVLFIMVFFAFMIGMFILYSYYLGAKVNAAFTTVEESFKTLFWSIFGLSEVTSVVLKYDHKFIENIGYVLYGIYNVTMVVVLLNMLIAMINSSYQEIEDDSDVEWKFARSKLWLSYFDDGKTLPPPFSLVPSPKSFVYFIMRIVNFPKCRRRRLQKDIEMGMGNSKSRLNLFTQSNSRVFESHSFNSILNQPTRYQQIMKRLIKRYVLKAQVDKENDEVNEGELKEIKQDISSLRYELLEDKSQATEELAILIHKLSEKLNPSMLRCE
Experimental: LC-MS technique was employed to find some evidence of the on-target engagement of compound 22 with TRPC3. Biochemical quantities of affinity-purified TRPC3 protein was successfully generated before and was confirmed by SDS-PAGE.21 After incubation of compound 22 with TRPC3 protein for 1 h, repeated size-exclusion chromatography was used to completely remove free compound 22 from the protein-bound fraction. Methanol was then added to this complex to denature the protein and extract the bound compound.

[3] = single dose 100 mg/kg, i.p after onset of seizures (stage 2)

In the case of `CCNC(=O)c1cnn(-c2ccc(-n3ccc(Cl)c(Cl)c3=O)cc2)c1C(F)(F)F` [Compound 22], the Kp at 1 h ([1]; C57BL/6, mouse, brain/plasma, iv, 20 mg/kg, i.v., 1 h after injection, read-out: brain-to-plasma ratio) is reported as ~0.15, the half-life ([1]; C57BL/6, mouse, plasma, iv, 20 mg/kg, i.v., read-out: plasma T½ (converted)) is reported as ~4 h and the “duration of brain concentration above TRPC3 IC50” value ([1]; one-dose injection) is reported as 18 to 20 h. The “scores of pilocarpine-induced seizures (modified Racine scale)” value ([2]; 100 mg/kg, i.p. after stage-2 seizures established, vs vehicle) was “reduced the scores of pilocarpine-induced seizures”, the “electrographic seizures (electroencephalography)” value ([2]; after pilocarpine injection) was “diminished electrographic seizures” and the “maximal seizure scores during a 90-minute observation” value [2, 3] was “decreased”. For the same compound, the overall seizure intensity [2, 3] was “decreased the overall seizure intensity”, the “initiation of behavioral seizures” value ([2]; systemic treatment before pilocarpine injection) was “significantly impaired the initiation of behavioral seizures” and the “binding to TRPC3 protein (compound detected by LC-MS in extract of purified complex)” value (TRPC3) was “direct binding”.
